Values quoted from earlier work, collected in patent publication US20130142849A1 (LUPIN LIMITED, priority 2010, published 2013).
Like-named read-outs stand apart in the source and are kept apart here.

SMILES: CCCCc1oc2ccc(NS(C)(=O)=O)cc2c1C(=O)c1ccc(OCCCN(CCCC)CCCC)cc1.Cl [Dronedarone, N-{2-butyl-3-[4-(3-dibutylaminopropoxy)benzoyl]benzofuran-5-yl}methane sulfonamide, hydrochloride]
- absolute oral bioavailability (administered with a high fat meal): approx. 15%
- absolute oral bioavailability (fasting): 4%
